Assay results published in the supplement of paper PMC4862054.

Legend:
[1] = tested on: CAL-85-1; settings: 72 h
How it was run: (§1)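 To measure viability, fluorescence at 560/590 nm was read after 2.5 µl CellTiter-Blue had been added for 2 h at 37 °C. Cells from breast cancer lines had been seeded in 20 µl suspension onto 384-well plates pre-loaded with compound dissolved in 5 µl medium and kept for 72 h. EC50 comes from a fitted percent-inhibition dose-response curve censored at the highest concentration, after per-plate normalisation to vehicle and a positive kill control, Z'-factor checks, and removal of rows with zero drug sensitivity score.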

[2] = tested on: DU-4475; settings: 72 h
How it was run: as §1

[3] = tested on: HDQ-P1; settings: 72 h
How it was run: as §1

[4] = tested on: CAL-51; settings: 72 h
How it was run: as §1

[5] = tested on: CAL-148; settings: 72 h
How it was run: as §1

[6] = tested on: Hs578T; settings: 72 h
How it was run: as §1

[7] = tested on: MDA-MB-436; settings: 72 h
How it was run: as §1

[8] = tested on: HCC1937; settings: 72 h
How it was run: as §1

[9] = tested on: HCC1599; settings: 72 h
How it was run: as §1

[10] = tested on: BT-549; settings: 72 h
How it was run: as §1

[11] = tested on: MFM-223; settings: 72 h
How it was run: as §1

[12] = tested on: MDA-MB-468; settings: 72 h
How it was run: as §1

[13] = tested on: CAL-120; settings: 72 h
How it was run: as §1

[14] = tested on: HCC1143; settings: 72 h
How it was run: as §1

[15] = tested on: SK-BR-3; settings: 72 h
How it was run: as §1

[16] = tested on: BT-474; settings: 72 h
How it was run: as §1

[17] = tested on: MDA-MB-231; settings: 72 h
How it was run: as §1

[18] = tested on: HCC1599; assay: normalised viability (% of control), CellTiter-Blue; higher = more viable cells (about 100 = DMSO control); settings: incubation time: 72 h
How it was run: (§2)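 Seeded at 20 µl suspension per well onto compound-loaded 384-well plates, breast cancer cell lines were incubated 72 h. CellTiter-Blue fluorescence at 560/590 nm was then read, with each plate normalised to vehicle (100) and a positive kill control (0). Normalised viability is reported at a single listed concentration of the series.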

[19] = tested on: HDQ-P1; assay: as above; settings: incubation time: 72 h
How it was run: as §2

[20] = tested on: MDA-MB-468; assay: as above; settings: incubation time: 72 h
How it was run: as §2

[21] = tested on: MDA-MB-453; assay: as above; settings: incubation time: 72 h
How it was run: as §2

[22] = tested on: BT-474; assay: as above; settings: incubation time: 72 h
How it was run: as §2

[23] = tested on: CAL-148; assay: as above; settings: incubation time: 72 h
How it was run: as §2

[24] = tested on: Hs578T; settings: 72 h; remark: listed apart in the source
Procedure: (§3)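 Drug sensitivity and resistance testing (DSRT) of breast cancer cell lines in 384-well plates, 5 concentrations in 10-fold dilutions over a compound-specific 10,000-fold range. After 72 h, cytotoxicity was read by CellTox Green fluorescence and viability by CellTiter-Glo luminescence (multiplexed), normalised to DMSO and benzethonium chloride controls. EC50 is the inflection point of the fitted dose-response curve (bottom asymptote free, so it can be relative for partial curves) and is censored at the highest tested concentration. Rows with DSS 0 (no meaningful response) were excluded.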

[25] = tested on: MDA-MB-436; settings: 72 h; remark: listed apart in the source
Procedure: as §3

[26] = tested on: CAL-85-1; settings: 72 h; remark: listed apart in the source
Procedure: as §3

[27] = tested on: MFM-223; settings: 72 h; remark: listed apart in the source
Procedure: as §3

[28] = tested on: MDA-MB-468; settings: 72 h; remark: listed apart in the source
Procedure: as §3

[29] = tested on: CAL-120; settings: 72 h; remark: listed apart in the source
Procedure: as §3

[30] = tested on: CAL-51; settings: 72 h; remark: listed apart in the source
Procedure: as §3

[31] = tested on: HCC1143; settings: 72 h; remark: listed apart in the source
Procedure: as §3

[32] = tested on: MCF-10A; settings: 72 h
Procedure: as §3

[33] = tested on: BT-474; settings: 72 h; remark: listed apart in the source
Procedure: as §3

[34] = tested on: MDA-MB-231; settings: 72 h; remark: listed apart in the source
Procedure: as §3

[35] = tested on: CAL-148; settings: 72 h; remark: listed apart in the source
Procedure: as §3

[36] = tested on: HCC1599; settings: 72 h; remark: listed apart in the source
How it was run: (§4)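 Per-plate normalisation used 0.1 % DMSO and a positive kill control. Breast cancer cell lines (20 µl suspension) were seeded into 384-well plates containing compound at 5 concentrations in 10-fold steps across a compound-specific 10,000-fold range, incubated for 72 h, and read first for CellTox Green fluorescence (485/520 nm), then for CellTiter-Glo luminescence. EC50 was fitted from the dose-response curves and censored at the top concentration.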

[37] = tested on: DU-4475; settings: 72 h; remark: listed apart in the source
How it was run: as §4

[38] = tested on: HDQ-P1; settings: 72 h; remark: listed apart in the source
How it was run: as §4

[39] = tested on: MFM-223; settings: 72 h; remark: listed apart in the source
How it was run: as §4

[40] = tested on: HCC1143; settings: 72 h; remark: listed apart in the source
How it was run: as §4

[41] = tested on: CAL-148; settings: 72 h; remark: listed apart in the source
How it was run: as §4

[42] = tested on: HCC1599; settings: 72 h; remark: listed apart in the source
Procedure: as §3

[43] = tested on: DU-4475; settings: 72 h; remark: listed apart in the source
Procedure: as §3

[44] = tested on: BT-549; settings: 72 h; remark: listed apart in the source
Procedure: as §3

SMILES: C/C(=C\c1csc(C)n1)[C@@H]1C[C@@H]2O[C@]2(C)CCC[C@H](C)[C@H](O)[C@@H](C)C(=O)C(C)(C)[C@@H](O)CC(=O)O1 [Patupilone]
- EC50, CellTiter-Blue viability [1]: 1.56 nM
- EC50, CellTiter-Blue viability [2]: 11.1 nM
- EC50, CellTiter-Blue viability [3]: 16.5 nM
- EC50, CellTiter-Blue viability [4]: 11.4 nM
- EC50, CellTiter-Blue viability [5]: 3.13 nM
- EC50, CellTiter-Blue viability [6]: 6.7 nM
- EC50, CellTiter-Blue viability [7]: 7.26 nM
- EC50, CellTiter-Blue viability [8]: 2.26 nM
- EC50, CellTiter-Blue viability [9]: 211 nM
- EC50, CellTiter-Blue viability [10]: 4.38 nM
- EC50, CellTiter-Blue viability [11]: 13 nM
- EC50, CellTiter-Blue viability [12]: 2.77 nM
- EC50, CellTiter-Blue viability [13]: 8.13 nM
- EC50, CellTiter-Blue viability [14]: 9.87 nM
- EC50, CellTiter-Blue viability [15]: 5.58 nM
- EC50, CellTiter-Blue viability [16]: 10.9 nM
- EC50, CellTiter-Blue viability [17]: 0.95 nM
- normalised viability ([18]; 100 nM): 92.2%
- normalised viability ([19]; 3 nM): 107%
- normalised viability ([20]; 100 nM): 49.5%
- normalised viability ([21]; 3 nM): 63.5%
- normalised viability ([22]; 100 nM): 24.8%
- normalised viability ([23]; 3 nM): 57.9%
- EC50, CellTox Green [24]: 206 nM
- EC50, CellTox Green [25]: 8.93 nM
- EC50, CellTox Green [26]: 53.3 nM
- EC50, CellTox Green [27]: 609 nM
- EC50, CellTox Green [28]: 1.67 nM
- EC50, CellTox Green [29]: 162 nM
- EC50, CellTox Green [30]: 2.63 nM
- EC50, CellTox Green [31]: 596 nM
- EC50, CellTox Green [32]: 145 nM
- EC50, CellTox Green [33]: 35.1 nM
- EC50, CellTox Green [34]: 136 nM
- EC50, CellTox Green [35]: 34.8 nM
- EC50, CellTiter-Glo [36]: 584 nM
- EC50, CellTiter-Glo [37]: 93.8 nM
- EC50, CellTiter-Glo [38]: 66.7 nM
- EC50, CellTiter-Glo [39]: 156 nM
- EC50, CellTiter-Glo [40]: 18.9 nM
- EC50, CellTiter-Glo [41]: 30 nM

SMILES: NS(=O)(=O)OC[C@@H]1C[C@@H](n2ccc3c(N[C@H]4CCc5ccccc54)ncnc32)C[C@@H]1O [Pevonedistat]
- EC50, CellTox Green [25]: 1510 nM
- EC50, CellTox Green [42]: 1840 nM
- EC50, CellTox Green [43]: 327 nM
- EC50, CellTox Green [28]: 436 nM
- EC50, CellTox Green [30]: 82.6 nM
- EC50, CellTiter-Glo [36]: 365 nM
- EC50, CellTiter-Glo [37]: 137 nM
- EC50, CellTiter-Glo [38]: 1560 nM
- EC50, CellTiter-Glo [39]: 155 nM
- EC50, CellTiter-Glo [40]: 845 nM

SMILES: CC[C@]1(O)C[C@H]2CN(CCc3c([nH]c4ccccc34)[C@@](C(=O)OC)(c3cc4c(cc3OC)N(C=O)[C@H]3[C@@](O)(C(=O)OC)[C@H](OC(C)=O)[C@]5(CC)C=CCN6CC[C@]43[C@@H]65)C2)C1 [Vincristine]
- EC50, CellTiter-Blue viability [1]: 5.33 nM
- EC50, CellTiter-Blue viability [2]: 17.9 nM
- EC50, CellTiter-Blue viability [3]: 11.2 nM
- EC50, CellTiter-Blue viability [4]: 26.7 nM
- EC50, CellTiter-Blue viability [5]: 8.72 nM
- EC50, CellTiter-Blue viability [6]: 2.72 nM
- EC50, CellTiter-Blue viability [7]: 8.21 nM
- EC50, CellTiter-Blue viability [8]: 3.57 nM
- EC50, CellTiter-Blue viability [9]: 27.7 nM
- EC50, CellTiter-Blue viability [10]: 3.8 nM
- EC50, CellTiter-Blue viability [11]: 16.9 nM
- EC50, CellTiter-Blue viability [12]: 0.6 nM
- EC50, CellTiter-Blue viability [13]: 1 nM
- EC50, CellTiter-Blue viability [14]: 1.62 nM
- EC50, CellTiter-Blue viability [15]: 0.608 nM
- EC50, CellTiter-Blue viability [16]: 0.3 nM
- EC50, CellTiter-Blue viability [17]: 2.49 nM
- normalised viability ([18]; 100 nM): 59.3%
- normalised viability ([18]; 1000 nM): 48%
- normalised viability ([19]; 3 nM): 91.3%
- normalised viability ([19]; 30 nM): 58.7%
- normalised viability ([20]; 100 nM): 33.4%
- normalised viability ([20]; 1000 nM): 33.2%
- normalised viability ([21]; 3 nM): 92.1%
- normalised viability ([21]; 30 nM): 22.6%
- normalised viability ([22]; 100 nM): 52%
- normalised viability ([22]; 1000 nM): 50.6%
- normalised viability ([23]; 3 nM): 88.5%
- normalised viability ([23]; 30 nM): 23.2%
- EC50, CellTox Green [24]: 85.1 nM
- EC50, CellTox Green [26]: 2.39 nM
- EC50, CellTox Green [42]: 489 nM
- EC50, CellTox Green [44]: 9.1 nM
- EC50, CellTox Green [27]: 20 nM
- EC50, CellTox Green [28]: 9.6 nM
- EC50, CellTox Green [30]: 28.1 nM
- EC50, CellTox Green [32]: 4.1 nM
- EC50, CellTox Green [33]: 4.19 nM
- EC50, CellTox Green [34]: 5.49 nM
- EC50, CellTiter-Glo [36]: 11.1 nM
- EC50, CellTiter-Glo [37]: 157 nM
- EC50, CellTiter-Glo [38]: 2.22 nM
- EC50, CellTiter-Glo [39]: 19.9 nM
- EC50, CellTiter-Glo [40]: 3.31 nM
- EC50, CellTiter-Glo [41]: 6.48 nM
